Source: US9327025B2, “Enriched 10-boron composition for cancer therapy and a method of synthesizing the same” (priority 2012, dated 2016)
Like-named read-outs stand apart in the source and are kept apart here.

What was measured:
[1] = system: breast cancer cells MDA-MB-231
[2] = cancerous mice; in vitro and in vivo tests
Description: In this research, a new smart drug, Enriched Boron-10 Calcium Fructo Borate (E^10BCFB), was investigated for using in cancer cells treatment in BNCT methods. […] E^10BCFB is in fact an artificial Calcium Fructo-Borate which is synthesized chemically with 10-Boron.

[3] = system: MDA-MB241 cell line (malignant breast cells); conditions: 24 hours
Method: MTT assay method was applied for evaluating the effects of Boron complex on MDA-MB241 cell line (malignant breast cells) in in vitro environment.
This is due to the fact that since food composition was used in the synthesis of the drug, tumor cells think that they are provided with food compostions. But after a while the number of cells will decrease by the drug. For different concentrations of Boron including 5 mg, 10 mg, 25 mg, 50 mg and 100 mg, these decreases are equal to 80, 50, 64, 79, and 36. After 48 hours similar results with little differences have been observed with 24 hours time interval.

Enriched 10-Boron Calcium Fructo Borate [E^10BCFB]
growth of breast cancer cells ([1]; MDA-MB-231): prevents the growth of breast cancer cells | Caspase-3 activity ([1]; tumor cells treated with the drug): increases the Caspase-3 activity | safety of the drug [2]: safe | concentration ratio of tumor to the 10-Boron concentration in the blood (3 hours after injection of 41.1 mg complex per 30 gram animal weight): about 4.5 | concentration of 10-Boron in the blood (3 hours after intraperitoneal injection of 41.1 mg complex per 30 gram animal weight, blood): about 6.1 ppm | accumulation of 10-Boron in tumor cells (3 hours after intraperitoneal injection of 41.1 mg complex per 30 gram animal weight, tumor): about 27 ppm | decrease of the number of cells (MTT) ([3]; concentration of Boron 5 mg): 80 | decrease of the number of cells (MTT) ([3]; concentration of Boron 10 mg): 50 | decrease of the number of cells (MTT) ([3]; concentration of Boron 25 mg): 64 | decrease of the number of cells (MTT) ([3]; concentration of Boron 50 mg): 79 | decrease of the number of cells (MTT) ([3]; concentration of Boron 100 mg): 36
